Results taken from article PMC7363885, “Fluorescent artificial receptor-based membrane assay (FARMA) for spatiotemporally resolved monitoring of biomembrane permeability” (Communications Biology, 2020).
“Also recorded” adds a separate entry of the source. Like-named read-outs stand apart in the source and are kept apart here. Marks after values point to notes of the source that are not given here.

Assays:
[1] = Description: Supplementary Table 3 | Qualitative assessment of membrane permeability for more tha n 90 different organic compoundsa investigated by the FARMA-assay with receptors FAR-1, FAR-2, and FAR-3, and, for comparison, investigations by the dye displacement signal generation strategy with the sensing ensembles (CB8•MV•2,6-ANS, CB8•MV•5HO-Trp, CB7•BE, and CB7•PAL). […]
a See also Fig. 2 in main text for chemical structures. b λexc = 400 nm, λobs = 450 nm. c λexc = 310 nm, λobs = […]
ethanol (10 mM stock). m Emerging excimer band at λobs = 500 nm was monitored. n Control experiment in the absence of host (CB8) was also carried out. o λobs = 500 nm was chosen to by-pass the self-fluorescence

[2] = system: FAR-2; assay: Fluorescence titration, FAR•analyte complex formation in homogeneous solution; details: 10 mM HEPES buffer (pH 7), 1:1 binding model, error estimate ≤ 20%
Description: (§1) Fluorescence titrations were carried out in aqueous HEPES buffer (10 mM, pH 7, 22 °C) unless stated otherwise. To a solution of the FAR (typically at 10–30 μM) was stepwise added a solution of the analyte (typically up to 2 mM) and the fluorescence spectra were recorded. The normalized emissions at 450 nm (FAR-1) or at 370 nm (FAR-2) were fitted with an equation for a 1 : 1 binding by a least-square fit. The resulting affinity constants are reported in Supplementary Table 1. Representative titration plots are shown in Supplementary Fig. 1.

[3] = Dye displacement membrane assay (liposome-encapsulated host•dye ensembles)
Text: Supplementary Figure 13 | Graphical representation of membrane assays using dye displacement for signaling. Diffusion of analytes through a lipid membrane is detected by displacement of the dye from (a) a host•dye or (b) a host•dye•quencher complex, leading to reduction or enhancement in emission intensity.
Supplementary Figure 14 | Membrane permeation monitoring of analytes by dye displacement. (a) Time-resolved changes in fluorescence intensity of CB7•BE-loaded liposomes (λexc = 347 nm, λobs = 500 nm) upon addition of the membrane-permeable analyte tyramine and membrane destabilizing peptide melittin.
(b) Evolution of fluorescence intensity after addition of dimethylbenzylamine (DMBA) to CB7•PAL-loaded liposomes (λexc = 347 nm, λobs = 500 nm). (c) Fluorescence response after addition of the […]
tryptophan to liposomes loaded with CB8•MV•2,6-ANS (λexc = 380 nm, λobs = 463 nm). […]
Combing equations S1 and S2, one arrives at Papp = kp∙(r/3) = kobs/canalyte∙cFAR∙(r/3) (equation 1 in main text)
Dye displacement membrane assay
Dye displacement membrane assays rely on selective encapsulation of reporter pairs inside liposomes and the reversible interaction between the receptor and the translocated analyte. To conduct the assay, liposomes containing the chemosensing ensemble composed of a macrocyclic host and a dye are prepared and purified, such that a subsequently added analyte affects the dye fluorescence only if it can enter the vesicle and displaces the dye from the macrocycle. Until now, only the dye displacement has been used as the signaling mechanism for tandem membrane assays,3, 4 whereby the competitive displacement of the dye from such host•dye complexes upon analyte addition restores the fluorescence features of the dye in solution, Supplementary Figures 13 - 14.
Specifically, this signaling mechanism has been mostly employed with macrocyclic host s with cavity space that is capable o f forming 1:1 complex es, e.g., cucurbit[7]uril (CB7) and the dyes berberine (BER) or palmatine (PAL), see Supplementary Figure 13a, or with p-sulfonato calix[4]arene (CX4) and lucigenin.3,4 Expanding the repertoire of chemosensors for tandem membrane assay s, we exploit herein also the ability of a larger macrocyclic host such as cucurbit[8]uril (CB8) to form 1:1:1 ternary complexes,5-7 and utilize here the quencher methyl viologen (MV) in combination with the fluorescent dyes 5-hydroxy tryptophan (5HO-Trp), 2-anilinonaphthalene -6-sulfonic acid (2,6-ANS) or dapoxyl sulfonic acid, sodium salt (DapoxS), Supplementary Figure 13b. Upon addition of an analyte, the fluorescent dye, the quencher or both the fluorescent dye and quencher are displaced from the CB8 cavity, which in each case is reflected by an increase in the emission intensity of the dye (switch -on displacement assay), Supplementary Figures 14- […]
The dye displacement signal strategy has two important disadvantages compared to the preferred fluorescent artificial receptor (FAR) assays:
(i) The dye displacement strategy is limited to strongly binding analytes, i.e., K(analyte) ≥ K(dye), otherwise a large excess concentration of analyte is needed to generate significant

[4] = in vitro
Text: Elementary physical parameters, such as permeability coefficients, can be extracted from the full kinetic FARMA data. This kinetic profile → parameter mapping requires some assumptions to be made in regard to the permeation mechanism. We applied a reported permeation model for liposomes[31] to arrive at permeation rate constants (kp) and apparent permeability coefficients (Papp). The derivation of the mathematical relation (1), linking the fundamental permeability rate constant and permeability coefficient to experimental measurable kobs rate constants, the known total analyte and total FAR concentration, and the experimentally determined liposome radius (r), is shown in the Supplementary Information.1 Papp=kp⋅r/3=kobs/canalyte⋅cFAR⋅r/3 […]
The volume-to-surface correction factor r/3 accounts for the fact that the observed rates depend on the size, i.e., radius r, of the liposomal assembly. […] The initial-rate method can also be applied, see the Supplementary Information. Moreover, kobs/canalyte can be estimated by single-point measurements at selected canalyte concentration.
A solution of 2.5 mg/mL of POPC and 0.33 mg/mL of POPS in chloroform was purged with nitrogen and dried overnight under […] vacuum. […] The resulting FAR-loaded liposomes were separated from non-encapsulated species by size-exclusion chromatography (NAP-25 column), while maintaining the same buffer. The absence of non-encapsulated FAR was confirmed by adding a non-membrane-permeable species such as tryptophan to a fluorescence cuvette containing 25 µL of liposomes diluted in 1 mL HEPES (10 mM) buffer. Complete removal of non-encapsulated FAR is indicated by the absence of a significant fluorescence change upon Trp addition.
In a typical experiment, 20 µL of liposome solution loaded with FAR was diluted in 1 mL HEPES buffer (10 mM, pH 7.0) in a 1 mL quartz cuvette. An emission spectrum was recorded after 10 min of “equilibration time” on a Varian Eclipse spectrofluorometer thermostated at 22 °C with a water bath using λexc = 400 nm for FAR-1, λexc = 310 nm for FAR-2, and λexc = 330 nm for FAR-3. In the time-resolved experiments, the emission intensity at λobs = 450 nm for FAR-1, λobs = 370 nm for FAR-2, and λobs = 370 and 500 nm for FAR-3 (the latter is the emerging excimer band for certain FAR-3•analyte complexes) was recorded with an averaging time of 0.5 s. […] For single-point experiments, a full spectrum was recorded after a fixed time or several time intervals after analyte addition. […] Only FAR-analyte combinations were used for FARMA, for which no significant autofluorescence and competitive light absorption of the analyte occurred.
For each experiment, measurements from 6 injections were accumulated and the average of these traces was used for data analysis.
Calculation of the unimolecular permeation rate constants ( kp) and of the apparent permeability coefficients (Papp).
The passive diffusion (permeation) of small non-charged compounds follows a modified Fick’s law and can be expressed by a first order kinetics.1 Similar to first order chemical reactions, the kinetics curve can therefore be fitted monoexponentially to obtained the observed permeation rates (kobs). In our assay set-up, such an exponential fit is an approximation, since it neglects that a certain fraction of transported analyte is bound to the FAR and cannot exit the liposome. Nevertheless, the fit of the kinetic curves of the […]
approximation is justified.

[5] = system: FAR-1; assay: Fluorescence titration, FAR•analyte complex formation in homogeneous solution; assay type: binding
Description: as §1, with “Fig. 1. Note that the high CB8-dye binding affinities correspond to a near quantitative degree of host-dye complexation, i.e., quantitative formation of the FAR, such that the subsequent binding of the analyte can be treated independently.” for “Fig. 1.”

[6] = PAMPA; cited from earlier work
[7] = 298 K; cited from earlier work
[8] = Aliquot analysis/flat lipid bilayer (macroscopic bilayer of brain phospholipids); cited from earlier work
[9] = system: Caco-2; details: cited from earlier work
[10] = monoexponential fit, analyte 40 µM (bulk), FAR-2 ca. 500 µM in the liposome interior, 20% error
[11] = FAR-1, 10 mM HEPES buffer (pH 7), 1:1 binding model, error estimate ≤ 20%
[12] = FARMA with FAR-loaded liposomes or GUVs
[13] = dye displacement, CB7•BE-, CB8•MV•5OH-Trp- or CB8•MV•2,6-ANS-loaded liposomes

## Clc1ccccc1Cl [1,2-dichlorobenzene]
[1]
  Qualitative assessment of membrane permeability: +

## Oc1ccc(O)cc1 [1,4-dihydroxybenzene]
[2]
  Ka: 2.9 10^3 M−1

## O=C(O)C1C2CC3CC(C2)CC1C3 (stereo not drawn) [2-adamantyl-carboxylate]
[3]
  membrane permeability (in words): membrane-permeable, albeit at a slower rate

## Oc1ccc2ccccc2c1 [2-naphthol]
[1]
  Qualitative assessment of membrane permeability: +
[4]
  membrane permeability (in words): permeable

## N#Cc1ccccc1O [2CN-phenol, 2-cyanophenol]
[2]
  Ka: 5.8 10^3 M−1
[4]; [10]
  kobs: 10 s–1
[4]; source data of Fig. 5
  kobs: 10
  log(kobs): 1

## CCOc1ccc(O)cc1 [4-ethoxyphenol]
[5]; [11]
  Ka: 1 10^3 M−1
[2]
  Ka: 1.0 10^3 M−1

## COc1ccc(O)cc1 [4-methoxyphenol]
[2]
  Ka: 2.4 10^3 M−1

## N#Cc1ccc(O)cc1 [4CN-phenol, 4-cyanophenol]
[1]
  Qualitative assessment of membrane permeability: +
[6]
  Papp Literature: 17 10^−6 cm s^−1
[2]
  Ka: 5.2 10^3 M−1
[4]; not told, pH 7
  kobs: 40
  log(kobs): 1.602

## Nc1ccccc1 [Aniline, aniline]
[5]; [11]
  Ka: 33 10^3 M−1
[6]
  Papp Literature: 76 10^−6 cm s^−1
[2]
  Ka: 25 10^3 M−1
[4]; [10]
  kobs: 7.5 s–1
[4]; not told, pH 7
  kp: 9400^f
[4]; source data of Fig. 5
  kobs: 7.5
  log(kobs): 0.8751

## COc1ccc2cc3[n+](cc2c1OC)CCc1cc2c(cc1-3)OCO2 [BER, berberine]
[7]
  dissociation rate from CB7: 0.8 s⁻¹

## c1ccc2[nH]ccc2c1 [Indole, indole]
[8]
  Papp Literature: 250 10^−6 cm s^−1
[9]
  Papp Literature: 57 10^−6 cm s^−1
[4]; [12]
  membrane permeability (in words): instantaneous; also recorded: permeating
[4]; [10]
  kobs: 1.8 s–1
[4]; not told, pH 7
  kp: 3200
[4]; source data of Fig. 5
  kobs: 1.8
  log(kobs): 0.2553

## CC12CC3CC(C)(C1)CC(N)(C3)C2 [Memantine, 3,5-dimethyladamantan-1-amine, reference compound]
[9]
  Papp Literature: 43 10^−6 cm s^−1
[4]; not told, pH 7
  Papp: 24 ×10⁻⁶ cm/s

## N[C@@H](Cc1ccccc1)C(=O)O [Phe, phenylalanine]
[3]; [13]
  membrane permeability (in words): membrane impermeable
[5]; [11]
  Ka: 5 10^3 M−1

## Oc1ccccc1 [Phenol, phenol]
[5]; pH 7
  Ka: 56
[6]
  Papp Literature: 47
[4]; not told, pH 7
  Papp: 112 ×10⁻⁶ cm/s
  kobs: 2.7 s–1
  log(kobs): 0.4314
  time of FARMA signal response (t): < 5 s

## CNC(=C[N+](=O)[O-])NCCSCc1ccc(CN(C)C)o1 [Ranitidine, ranitidine, reference compound]
[5]; [11]
  Ka: 2 10^3 M−1
[6]
  Papp Literature: 0.88 10^−6 cm s^−1
[9]; no passive permeation but active transport
  Papp Literature: 0.49 10^−6 cm s^−1
[4]; not told, pH 7
  Papp at 100 µM: 0.013 ×10⁻⁶ cm/s

## NC(=O)C(N)Cc1c[nH]c2ccccc12 (stereo not drawn) [TrpNH2, tryptophanamide]
[5]; [11]
  Ka: 460 10^3 M−1
[6]
  Papp Literature: 2.7 10^−6 cm s^−1

## NCCCCCN [cadaverine]
[3]; [13]
  membrane permeability (in words): membrane impermeable

## COc1ccc(B(O)O)cc1 [p-anisylboronic acid]
[2]
  Ka: 4.8 10^3 M−1

## Cc1ccc(C)cc1 [p-xylene, 1,4-dimethylbenzene]
[1]
  Qualitative assessment of membrane permeability: +
[4]; [10]
  kobs: 17 s–1
[4]; source data of Fig. 5
  kobs: 17
  log(kobs): 1.23

## CC(C)NCC(O)COc1cccc2ccccc12 (stereo not drawn) [propranolol, reference compound]
[3]; [13]
  membrane permeability (in words): membrane permeable
[5]; [11]
  Ka: 3 10^3 M−1

## O=C([O-])c1ccccc1.[Na+] [sodium benzoate]
[2]
  Ka: < 1 10^3 M−1

## NCCCNCCCCNCCCN [spermine]
[3]; [13]
  membrane permeability (in words): membrane impermeable

## NCCc1ccc(O)cc1 [tyramine]
[3]; [13]
  membrane permeability (in words): membrane-permeable
[4]; [12]
  membrane permeability (in words): pass the membrane within several minutes to hours
